Source: ChEMBL document CHEMBL1201862, “PubChem BioAssay data set” (2004)
Values belong to the molecule of their own block, whether it stands above or below them. Active and inactive are the calls of the source.

How the values were obtained:
[1] = IC50 of Artemis nuclease activity blockers – biochemical, fluorescence intensity, dose response (AID 720701); assay type: functional;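 note: Artemis endonuclease enzyme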
[2] = viability of uninfected HEp-2 cells – cell-based, HTS, cytotoxicity control for RSV inhibitor project, dose response (AID 2410); assay type: functional; conditions: human respiratory syncytial virus
[3] = viability loss in THP-1 monocytes – THP-1 cells, cytotoxicity control for Vif-APOBEC3G degradation inhibitor project, dose response (AID 1117359); assay type: functional; conditions: THP-1
[4] = viability loss in human Jurkat cells – cell-based, luminescence, cytotoxicity control for P. falciparum gametocyte viability project, dose response (AID 1117277); assay type: functional;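 note: potency reflects loss of cellular ATP meaning fewer viable cells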
[5] = target: T1, Histone-lysine N-methyltransferase NSD2 (Homo sapiens, UniProt O96028); assay type: biochemical
T1 sequence (O96028 whole entry): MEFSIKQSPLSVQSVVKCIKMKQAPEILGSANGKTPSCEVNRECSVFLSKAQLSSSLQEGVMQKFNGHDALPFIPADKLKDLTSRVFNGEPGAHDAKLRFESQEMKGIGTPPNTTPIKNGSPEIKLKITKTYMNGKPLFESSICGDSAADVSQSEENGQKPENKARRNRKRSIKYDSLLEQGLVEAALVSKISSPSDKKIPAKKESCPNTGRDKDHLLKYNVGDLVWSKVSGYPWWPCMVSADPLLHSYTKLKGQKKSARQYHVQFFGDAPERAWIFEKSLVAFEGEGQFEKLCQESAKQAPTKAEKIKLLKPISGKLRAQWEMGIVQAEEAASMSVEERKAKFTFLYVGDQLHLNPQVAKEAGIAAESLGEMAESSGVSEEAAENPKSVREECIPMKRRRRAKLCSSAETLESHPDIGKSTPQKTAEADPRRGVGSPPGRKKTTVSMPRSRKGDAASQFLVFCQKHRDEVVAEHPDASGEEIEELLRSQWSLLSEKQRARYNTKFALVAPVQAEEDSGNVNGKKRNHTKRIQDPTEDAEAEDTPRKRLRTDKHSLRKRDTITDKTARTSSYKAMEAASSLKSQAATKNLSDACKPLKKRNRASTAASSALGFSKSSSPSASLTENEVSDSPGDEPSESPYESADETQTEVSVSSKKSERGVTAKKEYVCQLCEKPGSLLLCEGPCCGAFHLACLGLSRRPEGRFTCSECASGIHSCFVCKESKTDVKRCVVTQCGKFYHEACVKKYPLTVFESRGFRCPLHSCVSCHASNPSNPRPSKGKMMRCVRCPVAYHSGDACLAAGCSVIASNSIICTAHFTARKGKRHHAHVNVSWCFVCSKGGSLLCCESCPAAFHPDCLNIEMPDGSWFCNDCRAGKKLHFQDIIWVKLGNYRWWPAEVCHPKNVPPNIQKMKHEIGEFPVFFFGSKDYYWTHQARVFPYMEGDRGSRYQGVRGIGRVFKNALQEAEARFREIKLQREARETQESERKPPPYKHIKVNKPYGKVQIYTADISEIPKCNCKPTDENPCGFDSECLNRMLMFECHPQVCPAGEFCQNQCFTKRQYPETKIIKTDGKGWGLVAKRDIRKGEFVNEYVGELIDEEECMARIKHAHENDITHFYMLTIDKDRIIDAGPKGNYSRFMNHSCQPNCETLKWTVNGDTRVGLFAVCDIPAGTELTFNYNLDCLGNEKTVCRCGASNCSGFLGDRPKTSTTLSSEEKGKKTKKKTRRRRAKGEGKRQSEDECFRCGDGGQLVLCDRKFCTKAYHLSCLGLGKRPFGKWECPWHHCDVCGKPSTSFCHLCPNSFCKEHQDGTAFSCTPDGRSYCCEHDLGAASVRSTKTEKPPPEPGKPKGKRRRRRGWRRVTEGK

[6] = viability inhibitors of stage V gametocytes – luminescence, dose response (AID 1117278); assay type: functional, cell-based;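 note: gametocytes exposed to compound for 24 hours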
[7] = target: Mitogen-activated protein kinase 10 (Homo sapiens, UniProt P53779); test: Dose response biochemical screening assay for inhibitors of c-Jun N-Terminal Kinase 3 (JNK3). [Related pubchem assays: 746 ]
[8] = target: T2, 1-phosphatidylinositol 4,5-bisphosphate phosphodiesterase gamma-1 (Homo sapiens, UniProt P19174); test: Counterscreen for inhibitors of phospholipase C isozymes (PLC-B3): Fluorescence-based biochemical high throughput dose response assay to identify inhibitors of phospholipase C isozymes (PLC-gamma1).
T2 sequence (P19174 whole entry): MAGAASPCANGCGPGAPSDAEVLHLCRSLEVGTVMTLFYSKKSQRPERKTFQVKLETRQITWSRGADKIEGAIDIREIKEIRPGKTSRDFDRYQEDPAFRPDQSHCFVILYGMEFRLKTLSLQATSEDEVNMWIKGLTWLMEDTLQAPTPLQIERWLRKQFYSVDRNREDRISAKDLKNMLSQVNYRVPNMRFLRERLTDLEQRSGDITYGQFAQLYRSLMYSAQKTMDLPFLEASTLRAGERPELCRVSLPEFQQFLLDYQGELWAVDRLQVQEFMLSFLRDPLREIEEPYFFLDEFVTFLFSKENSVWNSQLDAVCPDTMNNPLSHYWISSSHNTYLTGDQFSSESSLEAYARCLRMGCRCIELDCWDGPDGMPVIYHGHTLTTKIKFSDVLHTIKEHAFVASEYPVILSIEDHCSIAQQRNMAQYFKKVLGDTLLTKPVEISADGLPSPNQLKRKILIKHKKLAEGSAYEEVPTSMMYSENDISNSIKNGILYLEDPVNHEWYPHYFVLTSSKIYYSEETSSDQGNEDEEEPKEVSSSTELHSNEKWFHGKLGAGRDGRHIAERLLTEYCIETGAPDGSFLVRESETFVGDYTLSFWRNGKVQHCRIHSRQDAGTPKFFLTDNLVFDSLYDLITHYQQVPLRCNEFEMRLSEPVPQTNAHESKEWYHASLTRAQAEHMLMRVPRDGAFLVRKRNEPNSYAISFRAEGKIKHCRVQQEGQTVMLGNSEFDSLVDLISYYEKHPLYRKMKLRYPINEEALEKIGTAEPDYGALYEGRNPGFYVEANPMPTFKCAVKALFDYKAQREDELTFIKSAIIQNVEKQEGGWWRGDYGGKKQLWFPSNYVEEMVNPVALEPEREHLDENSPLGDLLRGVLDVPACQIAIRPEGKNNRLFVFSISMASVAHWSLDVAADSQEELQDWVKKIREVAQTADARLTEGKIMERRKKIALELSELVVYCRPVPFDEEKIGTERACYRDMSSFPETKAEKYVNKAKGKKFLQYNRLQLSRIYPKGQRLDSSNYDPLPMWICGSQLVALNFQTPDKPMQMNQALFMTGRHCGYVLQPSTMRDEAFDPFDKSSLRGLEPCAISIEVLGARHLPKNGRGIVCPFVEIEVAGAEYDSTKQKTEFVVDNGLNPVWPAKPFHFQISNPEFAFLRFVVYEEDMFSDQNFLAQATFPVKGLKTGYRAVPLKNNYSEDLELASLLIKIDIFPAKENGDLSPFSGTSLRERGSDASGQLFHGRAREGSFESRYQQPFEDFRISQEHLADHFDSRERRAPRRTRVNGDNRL

[9] = target: T3, 1-phosphatidylinositol 4,5-bisphosphate phosphodiesterase beta-3 (Homo sapiens, UniProt Q01970); test: Fluorescence-based biochemical high throughput dose response assay to identify inhibitors of phospholipase C isozymes (PLC-B3).
T3 sequence (Q01970 whole entry): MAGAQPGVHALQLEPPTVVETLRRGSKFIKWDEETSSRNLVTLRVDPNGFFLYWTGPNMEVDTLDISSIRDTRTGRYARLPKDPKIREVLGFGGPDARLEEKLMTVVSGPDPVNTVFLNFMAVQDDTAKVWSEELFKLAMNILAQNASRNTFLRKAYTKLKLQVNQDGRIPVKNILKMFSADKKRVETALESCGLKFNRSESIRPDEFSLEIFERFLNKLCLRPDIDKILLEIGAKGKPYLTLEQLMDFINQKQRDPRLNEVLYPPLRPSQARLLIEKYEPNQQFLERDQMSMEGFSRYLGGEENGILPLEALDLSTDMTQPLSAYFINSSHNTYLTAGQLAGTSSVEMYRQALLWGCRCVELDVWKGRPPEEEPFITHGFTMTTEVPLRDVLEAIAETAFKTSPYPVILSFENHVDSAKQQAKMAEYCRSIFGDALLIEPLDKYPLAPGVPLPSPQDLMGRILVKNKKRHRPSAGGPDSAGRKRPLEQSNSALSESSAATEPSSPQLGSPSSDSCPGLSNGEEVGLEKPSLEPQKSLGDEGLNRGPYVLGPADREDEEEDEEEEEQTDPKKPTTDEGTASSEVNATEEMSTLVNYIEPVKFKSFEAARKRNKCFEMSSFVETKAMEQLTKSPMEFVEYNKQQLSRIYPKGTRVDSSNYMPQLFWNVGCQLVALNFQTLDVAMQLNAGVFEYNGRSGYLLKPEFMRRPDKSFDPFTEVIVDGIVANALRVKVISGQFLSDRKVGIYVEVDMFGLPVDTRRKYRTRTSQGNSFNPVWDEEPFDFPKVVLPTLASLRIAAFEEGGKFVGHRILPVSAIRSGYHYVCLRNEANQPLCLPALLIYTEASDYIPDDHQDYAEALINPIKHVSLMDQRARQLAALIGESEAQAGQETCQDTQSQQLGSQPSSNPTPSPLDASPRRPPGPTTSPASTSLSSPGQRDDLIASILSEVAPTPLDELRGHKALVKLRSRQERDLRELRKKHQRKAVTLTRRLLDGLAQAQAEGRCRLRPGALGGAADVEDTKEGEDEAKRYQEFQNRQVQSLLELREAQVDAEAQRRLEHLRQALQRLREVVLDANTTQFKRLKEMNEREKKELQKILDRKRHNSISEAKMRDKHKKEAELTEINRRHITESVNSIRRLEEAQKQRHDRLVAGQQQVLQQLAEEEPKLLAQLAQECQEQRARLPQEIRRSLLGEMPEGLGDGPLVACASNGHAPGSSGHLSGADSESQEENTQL

[10] = target: T4, Estrogen receptor beta (Homo sapiens, UniProt Q92731); test: blockers of SRC-3 recruitment to ERβ – biochemical, ELISA, streptavidin-HRP readout, orthogonal assay, confirmation (AID 1060)
[11] = target: DNA dC->dU-editing enzyme APOBEC-3G (Homo sapiens, UniProt Q9HC16); assay type: functional;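 note: Dose-response counterscreen measuring inhibition of APOBEC3G DNA deaminase activity, run while confirming APOBEC3A inhibitors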
[12] = target: DNA dC->dU-editing enzyme APOBEC-3A (Homo sapiens, UniProt P31941); test: Dose Response confirmation of small molecule APOBEC3A DNA Deaminase Inhibitors via a fluorescence-based single-stranded DNA deaminase assay. [Related pubchem assays (depositor defined):AID493011, AID493024]; assay type: functional
[13] = target: T4, Estrogen receptor beta
[14] = OVCAR-3 cell viability loss – plate reader, dry powder samples, PAX8 inhibitor project, dose response (AID 743044); assay type: functional, cell-based
[15] = OVCAR8 cell viability loss – plate reader, dry powder samples, PAX8 project, dose response (AID 743197); assay type: functional, cell-based; conditions: OVCAR-8
[16] = target: Paired box protein Pax-8 (Homo sapiens, UniProt Q06710); test: PAX8 transcriptional activity inhibition in RMG-I – RMG-I cells, luciferase, cherry-pick, dose response (AID 687027); assay type: functional, cell-based;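 note: luciferase reporter driven by Pax8 target thyroperoxidase promoter measured by SteadyGlo luminescence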
Chain of Paired box protein Pax-8 (Q06710 whole entry): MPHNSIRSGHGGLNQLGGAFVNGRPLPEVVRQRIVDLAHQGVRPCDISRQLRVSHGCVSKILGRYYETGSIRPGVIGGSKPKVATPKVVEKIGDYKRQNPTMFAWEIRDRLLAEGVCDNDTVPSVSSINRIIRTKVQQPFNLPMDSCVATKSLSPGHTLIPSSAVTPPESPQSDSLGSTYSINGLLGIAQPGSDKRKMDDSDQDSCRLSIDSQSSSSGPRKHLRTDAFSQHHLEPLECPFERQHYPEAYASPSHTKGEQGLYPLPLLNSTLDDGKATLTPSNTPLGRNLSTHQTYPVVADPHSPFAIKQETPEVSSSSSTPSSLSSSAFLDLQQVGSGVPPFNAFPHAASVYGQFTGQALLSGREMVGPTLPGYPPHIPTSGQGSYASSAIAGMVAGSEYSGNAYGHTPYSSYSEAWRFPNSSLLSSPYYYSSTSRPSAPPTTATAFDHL

Chain of Mitogen-activated protein kinase 10 (P53779 whole entry): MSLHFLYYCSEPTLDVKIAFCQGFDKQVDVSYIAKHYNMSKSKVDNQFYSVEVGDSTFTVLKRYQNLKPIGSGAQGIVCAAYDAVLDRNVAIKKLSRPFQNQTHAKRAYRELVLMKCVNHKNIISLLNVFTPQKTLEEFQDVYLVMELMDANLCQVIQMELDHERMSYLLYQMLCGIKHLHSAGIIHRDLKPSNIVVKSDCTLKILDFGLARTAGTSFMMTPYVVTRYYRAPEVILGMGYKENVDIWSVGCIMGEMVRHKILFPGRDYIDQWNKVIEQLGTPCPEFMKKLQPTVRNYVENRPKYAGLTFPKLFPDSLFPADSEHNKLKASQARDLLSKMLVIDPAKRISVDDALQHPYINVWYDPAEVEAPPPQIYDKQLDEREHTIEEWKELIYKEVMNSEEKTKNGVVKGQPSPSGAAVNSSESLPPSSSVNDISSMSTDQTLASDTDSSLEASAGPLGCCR
T4 sequence (Q92731 whole entry): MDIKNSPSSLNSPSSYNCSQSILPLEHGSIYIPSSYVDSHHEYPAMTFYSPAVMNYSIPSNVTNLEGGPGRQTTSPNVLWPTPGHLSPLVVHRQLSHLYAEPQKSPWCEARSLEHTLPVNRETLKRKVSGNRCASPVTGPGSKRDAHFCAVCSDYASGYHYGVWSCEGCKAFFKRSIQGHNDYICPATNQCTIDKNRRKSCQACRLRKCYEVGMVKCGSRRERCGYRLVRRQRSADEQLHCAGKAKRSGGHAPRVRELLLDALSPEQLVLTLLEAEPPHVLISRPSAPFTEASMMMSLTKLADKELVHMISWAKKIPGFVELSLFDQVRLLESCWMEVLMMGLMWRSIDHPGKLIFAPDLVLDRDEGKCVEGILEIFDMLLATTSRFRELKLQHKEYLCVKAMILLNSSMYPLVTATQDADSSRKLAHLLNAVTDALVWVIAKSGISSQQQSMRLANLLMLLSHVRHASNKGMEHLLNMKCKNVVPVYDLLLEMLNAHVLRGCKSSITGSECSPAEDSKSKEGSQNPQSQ
Chain of DNA dC->dU-editing enzyme APOBEC-3G (Q9HC16 whole entry): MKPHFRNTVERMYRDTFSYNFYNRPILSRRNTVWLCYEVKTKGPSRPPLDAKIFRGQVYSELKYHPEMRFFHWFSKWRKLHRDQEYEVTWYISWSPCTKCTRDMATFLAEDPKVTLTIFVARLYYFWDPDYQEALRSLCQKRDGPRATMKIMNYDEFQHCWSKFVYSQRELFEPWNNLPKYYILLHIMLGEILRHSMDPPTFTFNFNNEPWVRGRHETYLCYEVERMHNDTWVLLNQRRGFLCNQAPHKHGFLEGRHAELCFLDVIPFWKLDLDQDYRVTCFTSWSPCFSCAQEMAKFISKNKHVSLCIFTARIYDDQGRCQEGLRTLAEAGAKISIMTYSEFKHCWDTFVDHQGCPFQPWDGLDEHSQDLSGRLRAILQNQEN
Chain of DNA dC->dU-editing enzyme APOBEC-3A (P31941 whole entry): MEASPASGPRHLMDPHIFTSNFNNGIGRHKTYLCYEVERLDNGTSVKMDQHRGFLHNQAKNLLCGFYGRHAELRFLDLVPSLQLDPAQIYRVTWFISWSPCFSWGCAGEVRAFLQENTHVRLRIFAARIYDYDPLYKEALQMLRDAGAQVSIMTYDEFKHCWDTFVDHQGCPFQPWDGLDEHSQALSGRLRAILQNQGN

- IC50 [1]: > 20 µM (inactive)
Compound: CCOC(=O)N1CCN(Cc2nc(N)nc(Nc3ccc(Oc4ccccc4)cc3)n2)CC1

- IC50 [1]: > 20 µM (inactive)
Compound: CCN=c1ccc(Br)cc(C(=O)/C=C/c2ccc3c(c2)OCO3)c1O
- CC50 [2]: 13.8 µM (active)
- CC50 [3]: 32.6 µM (active)

Compound: CCCCCNc1nc(NCCCO)c(C#N)c2c1CN(C)CC2
- IC50 [4]: > 83.3 µM (inactive)
- AC50 [5]: > 20 µM (inactive)
- IC50 [6]: > 109 µM (inactive)

- IC50 [7]: 40 µM (not active)
Compound: CCOC(=O)CSc1nc2c(sc3ccccc32)c(=O)n1CCCN1CCOCC1

- IC50 [8]: 108 µM (inactive)
- IC50 [9]: > 122 µM (inactive)
Compound: O=C(NCc1ccccc1)c1[nH]nnc1-c1ccccc1O

Compound: O=C1N=C(S)SC1=C1CCCC1
- IC50 [10]: 0.24 µM (not active)
- IC50 [11]: 7.39 µM (active)
- IC50 [12]: 5.61 µM (active)
- IC50 [13]: > 50 µM (not active)
- IC50 [8]: 47.5 µM (inactive)
- IC50 [9]: > 122 µM (inactive)

- IC50 [7]: 34.8 µM (not active)
Compound: COC(=O)c1c(NC(=O)Cc2cccs2)sc(C)c1C

Compound: CCOC(=O)c1c(NC(=O)CSc2nnc(-c3ccco3)o2)sc(C)c1C
- IC50 [4]: > 83.3 µM (inactive)
- IC50 [6]: > 109 µM (inactive)

- IC50 [7]: 76 µM (not active)
Compound: O=c1[nH]c(=S)c2c(n1-c1ccccc1)CCC2

- IC50 [8]: > 123 µM (inactive)
- IC50 [9]: > 123 µM (inactive)
Compound: FC(F)(F)c1cnc(Oc2ccccc2-c2nnc(-c3ccc(Cl)cc3)o2)c(Cl)c1

Compound: Cc1nnc2sc(SCC(=O)Nc3ccc(Br)cc3)nn2c1=O
- IC50 [4]: > 83.3 µM (inactive)
- IC50 [6]: > 109 µM (inactive)

Compound: C[C@@H]1CCCCO[C@H](CN(C)Cc2ccc(C(F)(F)F)cc2)[C@H](C)CN([C@H](C)CO)C(=O)c2cc(NC(=O)c3ccccc3)ccc2O1
- AC50 [14]: 43.7 µM (active)
- AC50 [15]: 45.2 µM (active)
- AC50 [16]: 10.1 µM (active)
